Reference: ChEMBL document CHEMBL3286324, “Serendipitous oxidation product of BIBN4096BS: a potent CGRP receptor antagonist” (Bioorg Med Chem Lett, 2014)

What was measured:
[1] = biological target: T1, Calcitonin gene-related peptide type 1 receptor (Homo sapiens, UniProt O60894+Q16602); assay: Antagonist activity at CGRP receptor in human SK-N-MC cells assessed as inhibition of alpha-CGRP-induced c-AMP formation after 15 mins by radioimmunoassay; type: cell-based
[2] = biological target: T1, Calcitonin gene-related peptide type 1 receptor; assay: Displacement of [125I]-hCGRP from CGRP receptor in human SK-N-MC cell membranes after 2 hrs by scintillation counting analysis

T1 sequence (Q16602 whole entry, one chain of several): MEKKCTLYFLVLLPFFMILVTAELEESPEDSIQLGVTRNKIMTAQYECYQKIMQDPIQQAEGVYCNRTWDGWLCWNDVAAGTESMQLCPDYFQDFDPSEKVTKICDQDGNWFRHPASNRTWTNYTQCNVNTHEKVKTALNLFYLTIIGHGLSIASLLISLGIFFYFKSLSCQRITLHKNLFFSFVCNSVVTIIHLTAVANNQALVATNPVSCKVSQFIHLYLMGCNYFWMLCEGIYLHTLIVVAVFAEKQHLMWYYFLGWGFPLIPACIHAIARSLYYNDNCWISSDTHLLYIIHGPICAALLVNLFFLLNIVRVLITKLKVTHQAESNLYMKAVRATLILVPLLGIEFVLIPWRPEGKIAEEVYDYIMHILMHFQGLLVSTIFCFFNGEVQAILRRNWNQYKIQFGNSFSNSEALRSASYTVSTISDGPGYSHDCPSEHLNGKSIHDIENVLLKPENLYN

## NCCCC[C@H](NC(=O)[C@@H](Cc1cc(Br)c(O)c(Br)c1)NC(=O)N1CCC(n2c(=O)[nH]c3ccccc3c2=O)CC1)C(=O)N1CCN(c2ccncc2)CC1
[1]
  EC50: 0.15 nM

## NCCCC[C@H](NC(=O)[C@@H](Cc1cc2ccccc2s1)NC(=O)N1CCC(N2Cc3ccccc3NC2=O)CC1)C(=O)N1CCN(c2ccncc2)CC1
[2]
  IC50: 25 nM
[1]
  EC50: 96 nM

## NCCCC[C@H](NC(=O)[C@@H](Cc1cc2ccccc2s1)NC(=O)N1CCC(n2c(=O)[nH]c3ccccc3c2=O)CC1)C(=O)N1CCN(c2ccncc2)CC1
[2]
  IC50: 2.7 nM
[1]
  EC50: 100 nM
